Laboratory results: US11066443B2 (Hoffmann-La Roche Inc., priority 2017, dated 2021)
In brackets after ≈: the same amount, converted by molar mass.

Columns and labels:
[1] = tested on: P. aeruginosa ATCC27853; test: Antimicrobial susceptibility testing: microbroth minimum inhibitory concentration (MIC) determination; assay type: cell-based; conditions: Pseudomonas aeruginosa, CLSI microbroth dilution in CAMHB, read after 20 hours, lowest concentration inhibiting >=80% of growth
Method: The in vitro antimicrobial activity of the compounds was determined through microbroth minimum inhibitory concentration (MIC) methodology performed according to the Clinical and Laboratory Standard Institute guidelines (CLSI—M07-A9 Jan. 2012. Methods for Dilution Antimicrobial Susceptibility Tests for Bacteria That Grow Aerobically; Approved Standard—Ninth Edition, Clinical and Laboratory Standards Institue, Wayne/PA, US and the CLSI—M100-S24 Jan. 2014. Performance Standards for Antimicrobial Susceptibility Testing; Approved Standard—Fourth Informational Supplement, Clinical and Laboratory Standards Institue, Wayne/PA, US).
The compound stock solution was freshly prepared at 10× the required top concentration for the MIC determination, i.e. at 1280 mg/L, by reconstitution of the dry compound in 50:50 water:DMSO.
Polystyrene non-treated 96 wells microtiter plates were used for preparing panel containing compound serial twofold diluted at two times the final testing concentration (e.g. range from 64 to 0.06 μg/ml) in cation adjusted Mueller Hinton broth medium (CAMHB).
Inoculum was prepared by the “direct colony suspension method”. Colonies of P. aeruginosa ATCC27853 or clinical isolates were suspended in saline solution and adjusted to 0.5 McFarland, diluted 100 times in CAMHB broth and 50 μl added to each well (final concentration of cells ˜5×10^(5) CFU/ml and Final volume/well of 100 μl). Microtiter plates were sealed and incubated at 35±2° C.
MICs values were read after 20 hours of incubation and recorded as the lowest concentration of the antimicrobial that inhibits more or equal to 80% of growth of the organism as detected by the unaided eye and using a microtiter plate optical density reader (OD 600 nm).
Table 1 provides the minimum inhibitory concentration (MIC) in microgram per milliliter of the compounds of present invention obtained against the P. aeruginosa ATCC27853 (Table 1).

[2] = tested on: P. aeruginosa NCTC11454; test: Antimicrobial susceptibility testing: 50% growth inhibitory concentration (IC50) determination; assay type: cell-based; conditions: Pseudomonas aeruginosa, Iso-Sensitest broth, OD 600 nm every 20 minutes over 16h, growth inhibition during logarithmic growth
Method in brief: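 Twofold dilutions (e.g. 50–0.097 μM final) in Iso-Sensitest broth were inoculated with P. aeruginosa NCTC11454 at ~5×10^5 CFU/mL and incubated at 35±2 °C. OD600 was read every 20 min over 16 h. IC50 was derived from growth inhibition in the logarithmic phase.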

Compound | MIC [1] [µg/mL] | IC50 [2] [µM]
CN1C(=O)[C@H](CCCCN)NC(=O)[C@H](CCCN)NCc2ccccc2Sc2cc(Cl)ccc2CNC(=O)[C@@H]1Cc1c[nH]c2ccccc12 [Example 2, (12S,15S,18S)-15-(4-Amino-butyl)-18-(3-amino-propyl)-5-chloro-12-(1H-indol-3-ylmethyl)-13-methyl-2-thia-10,13,16,19-tetraaza-tricyclo[19.4.0.0*3,8*]pentacosa-1(21),3,5,7,22,24-hexaene-11,14,17-trione] | 32 (≈ 45.4 µM) | > 50
Cc1[nH]c2ccccc2c1C[C@H]1C(=O)NCc2cc(Cl)ccc2Sc2ccccc2CN[C@@H](CCCN)C(=O)N[C@@H](CCCCN)C(=O)N1C [Example 15, (12S,15S,18S)-15-(4-Amino-butyl)-18-(3-amino-propyl)-6-chloro-13-methyl-12-(2-methyl-1H-indol-3-ylmethyl)-2-thia-10,13,16,19-tetraaza-tricyclo[19.4.0.0*3,8*]pentacosa-1(21),3,5,7,22,24-hexaene-1,14,17-trione] | 32 (≈ 44.5 µM) | 32
CN1C(=O)[C@H](CCCCN)NC(=O)[C@H](CCCN)NCc2ccccc2Sc2ccc(-c3ccccc3)cc2CNC(=O)[C@@H]1Cc1c[nH]c2ccccc12 [Example 19, (12S,15S,18S)-15-(4-Amino-butyl)-18-(3-amino-propyl)-12-(1H-indol-3-ylmethyl)-13-methyl-6-phenyl-2-thia-10,13,16,19-tetraaza-tricyclo[19.4.0.0*3,8*]pentacosa-1(25),3,5,7,21,23-hexaene-11,14,17-trione] | 32 (≈ 42.9 µM) | 
CN1C(=O)[C@H](CCCCN)NC(=O)[C@H](CCCN)NCc2ccccc2Sc2ccc(C(C)(C)C)cc2CNC(=O)[C@@H]1Cc1c[nH]c2ccccc12 [Example 20, (12S,15S,18S)-15-(4-Amino-butyl)-18-(3-amino-propyl)-6-tert-butyl-12-(1H-indol-3-ylmethyl)-13-methyl-2-thia-10,13,16,19-tetraaza-tricyclo[19.4.0.0*3,8*]pentacosa-1(25),3,5,7,21,23-hexaene-11,14,17-trione] | 32 (≈ 44.1 µM) | 
CC(C)c1ccc2c(c1)CNC(=O)[C@H](Cc1c[nH]c3ccccc13)N(C)C(=O)[C@H](CCCCN)NC(=O)[C@H](CCCN)NCc1ccccc1S2 [Example 21, (12S,15S,18S)-15-(4-Amino-butyl)-18-(3-amino-propyl)-12-(1H-indol-3-ylmethyl)-6-isopropyl-13-methyl-2-thia-10,13,16,19-tetraaza-tricyclo[19.4.0.0*3,8*]pentacosa-1(25),3,5,7,21,23-hexaene-11,14,17-trione] | 32 (≈ 44.9 µM) | 
CN1C(=O)[C@H](CCCCN)NC(=O)[C@H](CCCN)NCc2cccnc2Sc2c(cc(C(F)(F)F)cc2C(F)(F)F)CNC(=O)[C@@H]1Cc1c[nH]c2ccccc12 [Example 23, (11S,14S,17S)-14-(4-Amino-butyl)-11-(3-amino-propyl)-17-(1H-indol-3-ylmethyl)-16-methyl-23,25-bis-trifluoromethyl-2-thia-4,10,13,16,19-pentaaza-tricyclo[19.4.0.0*3,8*]pentacosa-1(25),3,5,7,21,23-hexaene-12,15,18-trione] | 32 (≈ 39.7 µM) | 
CN1C(=O)[C@H](CCCCN)NC(=O)[C@H](CCCN)NCc2ccccc2Sc2c(cc(-c3ccccc3)cc2C(F)(F)F)CNC(=O)[C@@H]1Cc1c[nH]c2ccccc12 [Example 28, (12S,15S,18S)-15-(4-Amino-butyl)-18-(3-amino-propyl)-12-(1H-indol-3-ylmethyl)-13-methyl-6-phenyl-4-trifluoromethyl-2-thia-10,13,16,19-tetraaza-tricyclo[19.4.0.0*3,8*]pentacosa-1(25),3,5,7,21,23-hexaene-11,14,17-trione] | 8 (≈ 9.83 µM) | 8.8
CN1C(=O)[C@H](CCCCN)NC(=O)[C@H](CCCN)NCc2cccnc2Sc2c(Cl)ccc(-c3ccccc3)c2CNC(=O)[C@@H]1Cc1c[nH]c2ccccc12 [Example 29, (11S,14S,17S)-14-(4-Amino-butyl)-11-(3-amino-propyl)-25-chloro-17-(1H-indol-3-ylmethyl)-16-methyl-22-phenyl-2-thia-4,10,13,16,19-pentaaza-tricyclo[19.4.0.0*3,8*]pentacosa-1(25),3(8),4,6,21,23-hexaene-12,15,18-trione] | 32 (≈ 41 µM) | 
CN1C(=O)[C@H](CCCCN)NC(=O)[C@H](CCCN)NCc2ccccc2Sc2c(Cl)cc(-c3cn(C)cn3)cc2CNC(=O)[C@@H]1Cc1c[nH]c2ccccc12 [Example 37, (12S,15S,18S)-15-(4-Amino-butyl)-18-(3-amino-propyl)-4-chloro-12-(1H-indol-3-ylmethyl)-13-methyl-6-(1-methyl-1H-imidazol-4-yl)-2-thia-10,13,16,19-tetraaza-tricyclo[19.4.0.0*3,8*]pentacosa-1(25),3,5,7,21,23-hexaene-11,14,17-trione] | 32 (≈ 40.8 µM) | 95.7
